One series deals with y^+ transporter. Nature of the series: Cellular uptake of [3H]-L-arginine via y+ transport in the presence of NOS agonists and NO donors. The class given is cell-based, bovine. The conditions noted are these: for maximum inhibition of LA transport: Fig. 8; for inhibition of LA transport: data not shown; for increase of [^3H]-LA uptake / increase of LA uptake: Ach 5 µM. On the procedure: Characterization of L-arginine transport system in bovine aortic endothelial cells. […] Prior to experiments, cells were split 1:4, transferred into 24 well plates, and allowed to grow to confluency. […] CaCl2, 1.8 mM; KCl 5.4 mM, choline 140 mM; […] Uptake of LA was terminated by addition of ice cold buffer and cells were washed three times with 1 ml of buffer. […] Cellular uptake of LA via B^α+ system was determined by substituting sodium chloride for choline and incubating as described above. The difference in uptake determined for both transporters and that observed for y+ alone represented the amount of LA uptake contributed by sodium-dependent B^α+ system. […] It has been previously reported that passive, non-saturable diffusion of LA can occur but only when extracellular levels of LA are within the millimolar concentration. […] Uptake of LA was terminated and total cellular transport of LA determined as described above.

For series [1], the target named is T1, nitric oxide synthase (NOS) (Bos taurus, UniProt P29473).
T1 construct: DOX activity as a NOS agonist was investigated in cultured bovine aortic EC; endogenous in cells; host or cells: cultured bovine aortic endothelial cells
Nature of the series: NO production in cultured endothelial cells (oxyhemoglobin to methemoglobin conversion and NO sensitive electrode). The class given is cell-based, bovine. From the text:
Doxazosin, a selective alpha-1 blocker, is pharmacologically similar to prazosin and terazosin. It has been shown that selective alpha-1 blockers lower total and LDL cholesterol. Thus, these selective alpha-1 blockers may be useful in treating both hypertension and hypercholesterolemia. […] In fact, a wide variety of vasoactive agents (e.g. bradykinin, muscarinic agonists and growth factors) which increase tPA levels are also agonists of nitric oxide synthase (NOS). DOX activity as a NOS agonist was investigated in cultured bovine aortic EC using two methods to assess NO production: conversion of oxyhemoglobin to methamoglobin and a NO sensitive electrode. […] This increase in NO to DOX (10^-6 M) was blocked by 72% by prior administration of the NOS inhibitor, L-NAME (5 x 10^-4 M). In addition, the NO responses were accentuated by the presence of supplemental L-arginine (5 x 10^-4 M) by 65%. […] This increase in NO to ACH (10^-6 M) was blocked by 86% by prior administration of L-NAME. In addition, the NO responses were accentuated by 72% in the presence of supplemental L-arginine. DOX, therefore, appears to be a NOS agonist in EC.
For all experiments, human coronary artery endothelial cells (passage 3-5 - Clonetics) were maintained at 37°, […] and 5% CO2 in Medium 199 (M199) supplemented with 5% fetal bovine serum (FBS, Hyclone), 10% iron supplemented FBS (Hyclone), thymidine (100mg mL^-1), penicillin G (100U mL^-1) and streptomycin (100µg mL^-1).
In all experiments, the effects of pretreatment with L-NAME (10^-3 M) in blocking the actions of DOX, and excess L-arginine (10^-3 M) in reversing any L-NAME effect was examined. Acetylcholine, an eNOS agonist, was used in all experiments as the positive control at concentrations of 10^-7 and 10^-6 M.
Methemoglobin - The effect of DOX on NO production in EC was determined using a photometric assay for conversion of oxyhemoglobin to methemoglobin. For this assay, EC grown to confluency on microcarrier beads are placed into a water-jacketed chromatography column and superfused with a Kreb's-Ringer buffer containing 3 µM oxyhemoglobin and 50 µM LA (L-arginine). Perfusate is then directed into a flow-through cuvette in a dual wavelength spectrophotometer and change in absorbancy (415/405 nm) is measured. Experimental stimulation was carried out by 3 min infusion periods of DOX added to buffer perfusion to yield final concentrations of 10^-7 and 10^-6 M. For analysis, we determined the area under the curve for the change in absorbancy response/min caused by DOX assuming a one to one correspondence for NO and metHb production, the known stoichiometric balance for this reaction. No electrode - NO production was measured with a NO meter connected to a polargraphic NO electrode as previously described. The NO sensor probe will be inserted vertically into 24-well plates containing confluent EC such that the tip of the electrode is submerged 2 mm under the surface of medium (above - 1ml). The reaction was initiated when desired concentrations of DOX are added to the well. Calibrations were performed with S-nitroso-acetyl-penicillamine.

The test system of the next series is Bovine aortic EC. Nature of the series: LA transport after exposure to homocysteine and its thiolactone. The class given is cell-based. From the text:
A third aspect of the present invention is the treatment, prevention, or amelioration of homocysteinemia with L-arginine alone. Hyperhomocysteinemia is associated with vascular EC dysfunction and increased risk for atherosclerosis and atherothrombosis. Free radical formation during homocyst(e)ine auto-oxidation has been implicated in its vascular toxicity. Long-term EC exposure to homocyst(e)ine limits nitric oxide synthase (NOS) activity, increasing EC vulnerability to oxidative injury (Stamler et al., 1993). To see whether these effects could be due to alterations in cellular availability of the NOS substrate LA, we tested the effects on LA transport of D,L-homocysteine (DLH) and an auto-oxidation product, L-homocysteine thiolactone (LHT). Bovine aortic EC were exposed to DLH and LHT (1.1-5 mM) for 6 and 24 hours and then incubated with […] [^3H]-LA for 1 min. Cells were washed with ice cold buffer, lysed in 0.5% SDS in 0.1 N NaOH and radioactivity was determined. DLH increased LA uptake in a concentration dependent manner at 6 hr. […] However, after 24 hr. exposure LA uptake was decreased (25-40%).

The test system of series [2] is bovine aortic endothelial cells (BAEC). Nature of the series: Cellular superoxide anion formation (SOD-inhibitable reduction of ferricytochrome C). The conditions noted are these: for inhibition of O2^•- production induced by A-23187: 5 × 10^-4M, A-23187 1 µM; for inhibition at 500 µM: Bos taurus, BAEC. Format: cell-based. On the procedure:
Cellular superoxide anion formation in the presence of NOS agonists. […] After reaching confluency, cells were washed 3 times (3 ml) with Dulbecco's phosphate buffered saline (DPBS) and 2 coverslips were placed in a disposable plastic cuvette facing each other. DPBS (1.8 ml) was gently placed in cuvette in addition to ferricytochrome C (final concentration, 50 µmol/L). […] Change in absorbance over time was determined and the amount of superoxide anion [ε=[…]] generated was determined over time and reported as pmoles O2^•-/min./10^6 cells.

For series [3] the following is noted: cited from earlier work.
[4] abbreviates: read-out: reduced O2· induced by SP.

Read-outs that look alike come from different tables or passages of the source.

In the case of `NCCCN(CCCN)/[N+]([O-])=N/O` [DPTA-NONOate, dipropylenetriamine NONOate], the “maximum inhibition of LA transport” value is listed as 20% in the series on y^+ transporter (0.01 µM DPTA, 2 hour exposure); 24% in the series with y^+ transporter (1 µM DPTA, 2 hour exposure); 44% in the series with y^+ transporter (10 µM DPTA, 2 hour exposure). In addition, the “effect on y^+ system” value with y^+ transporter (1 µM DPTA-NONOate (2 µM NO), 15 and 30 min) was “no significant effect”. For the same molecule, the “inhibition of LA transport” value in the series with y^+ transporter (1 µM DPTA-NONOate (2 µM NO), 1 hour exposure) was determined as 22%; with y^+ transporter (1 µM DPTA-NONOate (2 µM NO), 2 hour exposure) it was 24%; in the series on y^+ transporter (1 µM DPTA-NONOate (2 µM NO), 4 hour exposure), 29%.
On to `COc1cc2nc(N3CCN(C(=O)C4COc5ccccc5O4)CC3)nc(N)c2cc1OC` (stereo not shown) [DOX, Doxazosin], for which the “dose-related increase in NO production” value in series [1] (DOX 10^-7 - 10^-5 M, cultured bovine aortic EC) was 64-145%.
With `NC(CCS)C(=O)O` (racemic) [DLH, D,L-homocysteine], the LA uptake decreased in the series on Bovine aortic EC (24 hr. exposure, 1.1-5 mM) is on record as 25-40%. In addition, the activation at 5000 µM in the series on Bovine aortic EC (Bos taurus, 5 mM, 6 hr exposure, read-out: maximum increase of LA uptake) is 53%.
In the case of “bradykinin (RPPGFSPFR; Bradykinin; UniProt P01042 381-389, looked up) [BK]”, the “increase of cellular transport of LA” value in the series with y^+ transporter (BK 1αM, 15 minute exposure (maximum)) is 42%; with y^+ transporter (BK 1αM, 30 minutes) it was 39%; in the series with y^+ transporter (BK 1αM, 60 minutes), 16%. Moreover, the “enhanced cellular uptake of LA” value in the series on y^+ transporter (BK 1αM, 2 hour exposure) was determined as 38%. The “increase in transport of LA” value in the series with y^+ transporter (BK 1αM, 3 hour exposure) was determined as 19%; in the series on y^+ transporter (BK 1αM, 5 hour exposure) it was 22%.
Regarding `CSCC[C@H](NC(=O)[C@H](CC(C)C)NC(=O)CNC(=O)[C@H](Cc1ccccc1)NC(=O)[C@H](Cc1ccccc1)NC(=O)[C@H](CCC(N)=O)NC(=O)[C@H](CCC(N)=O)NC(=O)[C@@H]1CCCN1C(=O)[C@H](CCCCN)NC(=O)[C@@H]1CCCN1C(=O)[C@@H](N)CCCNC(=N)N)C(N)=O` [SP, substance P], the “increased O2· production above basal levels” value in series [2] (1 µM, 60 minute period) was determined as 3.5 fold. Moreover, the “increase of y^+ transport of LA into cells” value stood at 24% in the series on y^+ transporter (SP 1µM, 15 minutes exposure); 24% in the series on y^+ transporter (SP 1µM, 30 minutes); 21% with y^+ transporter (SP 1µM, 60 minutes). Also, the “y^+ transporter activity enhanced from control values” with y^+ transporter (SP 1µM, 2 hour exposure) is given as ≤ 34%. Moreover, the “cellular LA increase” value is 27% in the series with y^+ transporter (SP 1µM, 3 hour exposure) and 21% in the series on y^+ transporter (SP 1µM, 5 hour exposure).
Turning to `CC(=O)OCC[N+](C)(C)C` [Acetylcholine, acetylcholine], the “increase of [^3H]-LA uptake” value with y^+ transporter (2 minute exposure) was 22%; with y^+ transporter (15 minute (maximum)), 27%. For the same molecule, the “increase of LA uptake” value with y^+ transporter (30 minutes) amounted to 16%; with y^+ transporter (60 minutes), 15.5%.
Take `N[C@H]1CCSC1=O` [LHT, L-homocysteine thiolactone]: in the series with Bovine aortic EC (after 6 and 24 hrs exposure, 1.1-5 mM), the LA transport entry was “dose-related decrease”.
With `CC(=O)N[C@H](C(=O)O)C(C)(C)SN=O` [SNAP, S-nitroso-acetyl-penicillamine], in the series with y^+ transporter (200 µM SNAP (0.4 µM NO), ten minutes of exposure), the “increased activity of the Y^+ transporter” value is recorded as 37%. The “elevation of Y^+ transporter activity” value with y^+ transporter (200 µM SNAP, 30 minute exposure) is “not seen”. Also, in the series with y^+ transporter (200 µM SNAP, 1 hour), the “uptake of [^3H]-LA reduced” value is 22%. Further, the “reduction of uptake of [^3H]-LA” value in the series with y^+ transporter (200 µM SNAP, 2 hour exposure) was found to be 46%; in the series with y^+ transporter (200 µM SNAP, 3 hour exposure) it was 45%; in the series with y^+ transporter (200 µM SNAP, 5 hour exposure) it was 36%. Also, in series [3], the “t1/2 of NO donation” value is recorded as ~ 10 minutes.
For `N=C(N)NCCC[C@H](N)C(=O)O` [L-arginine], the “NO responses accentuated by supplemental L-arginine” value in series [1] (NO responses to DOX, L-arginine 5 x 10^-4 M) is 65%. In series [1] (NO responses to acetylcholine), the “NO responses accentuated in the presence of supplemental L-arginine” value worked out at 72%. In addition, the “inhibition of O2^•- production induced by A-23187” value in series [2] turned out to be 60%. In addition, the inhibition at 500 µM in series [2] (setting [4]) was 51%. The “prevention of basal production of O2^•-” value in series [2] (LA 5 x 10^-4M, basal) was “not”.
In the case of `COC(=O)[C@@H](N)CCCN=C(N)N[N+](=O)[O-]` [L-NAME, n-ω-nitro-L-arginine methyl ester], the “increase in NO blocked by prior administration of L-NAME” value in series [1] (NO response to ACH 10^-6 M) amounted to 86%. Moreover, the inhibition at 500 µM is 72% in series [1] (read-out: increase in NO blocked by prior administration of L-NAME); 100% in series [2] (1 h, read-out: prevented basal production of O2^•-); 81% in series [2] (setting [4]). Further, in series [2], the “inhibition of O2^•- production induced by A-23187” value is 58%.
`CNc1ccc2oc(C[C@H]3O[C@@]4(CC[C@H]3C)O[C@H]([C@H](C)C(=O)c3ccc[nH]3)[C@H](C)C[C@H]4C)nc2c1C(=O)O` [A-23187]: the “increased O2· production above basal levels” value in series [2] amounted to 2.5 fold.

The values are drawn from patent EP1671630A2, “L-Arginine based formulations for treating diseases and methods of using the same” (Angiogenix, Inc., priority 1999, dated 2000).
